Laboratory results from patent US20160235752A1, “COMPOSITIONS, METHODS OF USE, AND METHODS OF TREATMENT” (THE UNIVERSITY OF NEW ORLEANS, priority 2013, published 2016).

Experiments:
[1] = test system: Candida albicans (ATCC no. 10231); assay: MIC determination by broth microdilution (NCCLS), visual scoring; format: cell-based
How it was run: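 NCCLS broth microdilution in RPMI 1640 with 10 mM HEPES, final compound 0.5–128 μg/mL, DMSO ≤1%. Inoculum from 0.5 McFarland stock diluted 1:50; incubated 35 °C for 48–72 h. MIC scored visually as lowest concentration giving ~80% growth reduction versus drug-free wells.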

[2] = test system: Candida glabrata (ATCC no. 48435); assay: as above; format: cell-based
[3] = Table 3, 5-Alkylated Pyrimidinetriones
[4] = Table 4, 5,5-Dialkylated Pyrimidinetriones

SMILES	MIC80 C. albicans [1, 3]	MIC80 C. glabrata [2, 3]	MIC80 C. albicans [1, 4]	MIC80 C. glabrata [2, 4]
CCCCCCCC1C(=O)NC(=O)NC1=O [BA60]	— (none of the 5-acyl-2,4,6-pyrimidinetriones, 5-alkylated pyrimidinetriones or the 5,5-dialkylated pyrimidinetriones showed antifungal activity through 125 μg/mL)	— (none of the 5-acyl-2,4,6-pyrimidinetriones, 5-alkylated pyrimidinetriones or the 5,5-dialkylated pyrimidinetriones showed antifungal activity through 125 μg/mL)		
CC(C)C1C(=O)NC(=O)N(c2ccccc2)C1=O (centres unmarked) [BA61]	— (none of the 5-acyl-2,4,6-pyrimidinetriones, 5-alkylated pyrimidinetriones or the 5,5-dialkylated pyrimidinetriones showed antifungal activity through 125 μg/mL)	— (none of the 5-acyl-2,4,6-pyrimidinetriones, 5-alkylated pyrimidinetriones or the 5,5-dialkylated pyrimidinetriones showed antifungal activity through 125 μg/mL)		
O=C1NC(=O)C(C2CCCCC2)C(=O)N1 [BA62]	— (none of the 5-acyl-2,4,6-pyrimidinetriones, 5-alkylated pyrimidinetriones or the 5,5-dialkylated pyrimidinetriones showed antifungal activity through 125 μg/mL)	— (none of the 5-acyl-2,4,6-pyrimidinetriones, 5-alkylated pyrimidinetriones or the 5,5-dialkylated pyrimidinetriones showed antifungal activity through 125 μg/mL)		
O=C1NC(=O)C(CCCC2CCCCC2)C(=O)N1 [BA63]	— (none of the 5-acyl-2,4,6-pyrimidinetriones, 5-alkylated pyrimidinetriones or the 5,5-dialkylated pyrimidinetriones showed antifungal activity through 125 μg/mL)	— (none of the 5-acyl-2,4,6-pyrimidinetriones, 5-alkylated pyrimidinetriones or the 5,5-dialkylated pyrimidinetriones showed antifungal activity through 125 μg/mL)		
O=C1NC(=O)C(CC2CCC(O)CC2)C(=O)N1 (centres unmarked) [BA64]	— (none of the 5-acyl-2,4,6-pyrimidinetriones, 5-alkylated pyrimidinetriones or the 5,5-dialkylated pyrimidinetriones showed antifungal activity through 125 μg/mL)	— (none of the 5-acyl-2,4,6-pyrimidinetriones, 5-alkylated pyrimidinetriones or the 5,5-dialkylated pyrimidinetriones showed antifungal activity through 125 μg/mL)		
O=C1NC(=O)N(c2ccccc2)C(=O)C1CC1CCC(O)CC1 (centres unmarked) [BA65]	— (none of the 5-acyl-2,4,6-pyrimidinetriones, 5-alkylated pyrimidinetriones or the 5,5-dialkylated pyrimidinetriones showed antifungal activity through 125 μg/mL)	— (none of the 5-acyl-2,4,6-pyrimidinetriones, 5-alkylated pyrimidinetriones or the 5,5-dialkylated pyrimidinetriones showed antifungal activity through 125 μg/mL)		
O=C1NC(=O)C(CCCc2ccccc2)C(=O)N1 [BA66]	— (none of the 5-acyl-2,4,6-pyrimidinetriones, 5-alkylated pyrimidinetriones or the 5,5-dialkylated pyrimidinetriones showed antifungal activity through 125 μg/mL)	— (none of the 5-acyl-2,4,6-pyrimidinetriones, 5-alkylated pyrimidinetriones or the 5,5-dialkylated pyrimidinetriones showed antifungal activity through 125 μg/mL)		
CN1C(=O)C(CCCc2ccccc2)C(=O)N(C)C1=O [BA67]	— (none of the 5-acyl-2,4,6-pyrimidinetriones, 5-alkylated pyrimidinetriones or the 5,5-dialkylated pyrimidinetriones showed antifungal activity through 125 μg/mL)	— (none of the 5-acyl-2,4,6-pyrimidinetriones, 5-alkylated pyrimidinetriones or the 5,5-dialkylated pyrimidinetriones showed antifungal activity through 125 μg/mL)		
O=C1NC(=O)C(Cc2ccc3ccccc3c2)C(=O)N1 [BA69]	— (none of the 5-acyl-2,4,6-pyrimidinetriones, 5-alkylated pyrimidinetriones or the 5,5-dialkylated pyrimidinetriones showed antifungal activity through 125 μg/mL)	— (none of the 5-acyl-2,4,6-pyrimidinetriones, 5-alkylated pyrimidinetriones or the 5,5-dialkylated pyrimidinetriones showed antifungal activity through 125 μg/mL)		
O=C1NC(=O)C(Cc2ccccc2)(Cc2ccccc2)C(=O)N1 [BA70]			— (none of the 5-acyl-2,4,6-pyrimidinetriones, 5-alkylated pyrimidinetriones or the 5,5-dialkylated pyrimidinetriones showed antifungal activity through 125 μg/mL)	— (none of the 5-acyl-2,4,6-pyrimidinetriones, 5-alkylated pyrimidinetriones or the 5,5-dialkylated pyrimidinetriones showed antifungal activity through 125 μg/mL)
